The source of these data is PubChem BioAssay (NCI).

Test systems include A549 NSCLC; A498 renal; MALME-3M melanoma; TK-10 renal; NCI-H23 lung; RPMI-8226 leukemia; SNB-19 CNS; HCT-15 colon; NCI-H522 lung; MDA-MB-435.
What all share (assay): growth of human tumour cells (NCI), 48 h

“And” between values parts separate entries of the source, which are not always exact repeats. Equal entries are not always repeated.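 Cultured in 96-well plates, cells were exposed to test compound for 48 hours across five concentrations. The concentration for 50% growth inhibition is given as GI50. TGI: concentration producing complete growth inhibition.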 Where only a bound is given, the exact number is not on record here.

For `COc1ccc(C2c3ccc4ccccc4c3Oc3ncn(CCCn4ccnc4)c(=N)c32)cc1OC` (stereo not given), the GI50 in the experiment on A549 NSCLC was 3.75 µM; in the experiment with A498 renal, 1.5 µM; with MALME-3M melanoma it was 2.12 µM; in the experiment on TK-10 renal, 4 µM; in the experiment on NCI-H23 lung, 6.49 µM; with RPMI-8226 leukemia, 2.81 µM. For the same compound, the GI50 in the experiment with SNB-19 CNS was 11.2 µM; with HCT-15 colon, 3.37 µM; with NCI-H522 lung it was 1.87 µM; in the experiment with MDA-MB-435, 1.99 µM. Besides, the TGI was found to be 13.8 µM in the experiment with A549 NSCLC; 4.59 µM with A498 renal; 3.89 µM with MALME-3M melanoma; 14.4 µM in the experiment with TK-10 renal; 22.4 µM in the experiment with NCI-H23 lung; 8.58 µM with RPMI-8226 leukemia. Moreover, the TGI in the experiment with SNB-19 CNS stood at 26.7 µM; with HCT-15 colon, 12.8 µM; in the experiment with NCI-H522 lung, 4.36 µM; in the experiment on MDA-MB-435, 4.06 µM.

For `CCOC(=O)c1c(NN2CCN(CC(F)(F)F)CC2)oc(/C=C2\C=Nc3ncccc32)c1O`, the GI50 in the experiment with A549 NSCLC was 5.2 µM; in the experiment on A498 renal, 3.62 µM; with MALME-3M melanoma, 13 µM; with TK-10 renal it was 3.37 µM; in the experiment on NCI-H23 lung, 7 µM; with RPMI-8226 leukemia it was 4.25 µM. Also, the GI50 with SNB-19 CNS was 20.7 µM; in the experiment on HCT-15 colon, 6.59 µM; in the experiment with NCI-H522 lung it was 1.05 µM; in the experiment on MDA-MB-435, 3.36 µM. Further, the TGI with A549 NSCLC came out at 49.1 µM; in the experiment on A498 renal it was 9.62 µM; in the experiment on MALME-3M melanoma it was 29.4 µM; in the experiment with TK-10 renal, 24 µM; in the experiment on NCI-H23 lung, 21.7 µM; with RPMI-8226 leukemia, 20.7 µM. Moreover, the TGI with SNB-19 CNS is over 100 µM; in the experiment on HCT-15 colon it was 46.7 µM; in the experiment on NCI-H522 lung, 11.1 µM; with MDA-MB-435 it was 16.8 µM.

Turning to `COc1ccc(-c2cnc(-c3ccc(OC)cc3)n2-c2cc(OC)c(OC)c(OC)c2)cc1`, the GI50 was 23.1 µM in the experiment on A549 NSCLC; 12.1 µM with A498 renal; 13.3 µM in the experiment with MALME-3M melanoma; 20.5 µM in the experiment on TK-10 renal; 28.6 µM with NCI-H23 lung; 25.7 µM in the experiment with RPMI-8226 leukemia. The GI50 in the experiment with SNB-19 CNS is 19.8 µM; in the experiment on HCT-15 colon, 36 µM; in the experiment with NCI-H522 lung, 29.5 µM; with MDA-MB-435, 31.2 µM. Besides, the TGI was 82.2 µM in the experiment on A549 NSCLC; 39.5 µM with A498 renal; 30.6 µM in the experiment with MALME-3M melanoma; 39.2 µM with TK-10 renal; over 100 µM with NCI-H23 lung; over 100 µM with RPMI-8226 leukemia. Moreover, the TGI was 60.5 µM in the experiment on SNB-19 CNS, over 100 µM in the experiment on HCT-15 colon, over 100 µM in the experiment on NCI-H522 lung and over 100 µM with MDA-MB-435.

`CCCN(CCC)c1ccc(/C=N/NC(=O)c2cccnc2)c(C)c1`: the GI50 with A549 NSCLC was 15.7 µM; in the experiment with A498 renal it was 1.06 µM; in the experiment on MALME-3M melanoma it was 13 µM; in the experiment with TK-10 renal it was 16 µM; with NCI-H23 lung it was 14.4 µM; in the experiment on RPMI-8226 leukemia it was 19.4 µM. The GI50 was 16.1 µM in the experiment on SNB-19 CNS, 11.9 µM in the experiment with HCT-15 colon, 12.6 µM in the experiment with NCI-H522 lung and 5.67 µM in the experiment with MDA-MB-435. The TGI with A549 NSCLC came to 36.8 µM; in the experiment with A498 renal, 3.54 µM; in the experiment on MALME-3M melanoma, 28.2 µM; in the experiment with TK-10 renal, 38.5 µM; with NCI-H23 lung, 32.1 µM; with RPMI-8226 leukemia it was 68.7 µM. For the same compound, the TGI in the experiment on SNB-19 CNS was 34.1 µM; with HCT-15 colon, 47.8 µM; with NCI-H522 lung, 30 µM; in the experiment with MDA-MB-435 it was 20.8 µM.

With `N#Cc1c(N)nc2c(c1-c1ccc(Cl)cc1)COc1ccc(F)cc1-2`, the GI50 in the experiment with A549 NSCLC was 43.5 µM; with A498 renal, 22.3 µM; in the experiment with MALME-3M melanoma, 40.3 µM; with TK-10 renal it was 34.7 µM; in the experiment with NCI-H23 lung, 28.4 µM; in the experiment with RPMI-8226 leukemia, 18.7 µM. Besides, the results for the GI50 in the experiment on HCT-15 colon, with NCI-H522 lung and with MDA-MB-435 were 24.1 µM, 23 µM and 20.7 µM, respectively. Also, the TGI was over 100 µM with A549 NSCLC; 52.3 µM in the experiment with A498 renal; 81.7 µM in the experiment on MALME-3M melanoma; over 100 µM in the experiment with TK-10 renal; over 100 µM in the experiment on NCI-H23 lung; 41.2 µM with RPMI-8226 leukemia. The results for the TGI with HCT-15 colon, in the experiment with NCI-H522 lung and in the experiment on MDA-MB-435 were 84.7 µM, 59.5 µM and 45.2 µM, respectively.

For the compound `O=c1[nH]c(-c2ccc(Cl)c(Cl)c2)cn1-c1ccc(Cl)cc1`, the GI50 with A549 NSCLC was 21.3 µM; in the experiment on A498 renal it was 22.2 µM; in the experiment with MALME-3M melanoma, 17 µM; with TK-10 renal, 16.5 µM; in the experiment on NCI-H23 lung, 16.4 µM; in the experiment with RPMI-8226 leukemia it was 56.9 µM. For the same compound, the GI50 was 30.1 µM in the experiment with SNB-19 CNS, over 100 µM with HCT-15 colon, 44.3 µM with NCI-H522 lung and 60 µM in the experiment on MDA-MB-435. Also, the TGI with A549 NSCLC was 48 µM; in the experiment with A498 renal, 47.6 µM; in the experiment with MALME-3M melanoma, 39.7 µM; in the experiment with TK-10 renal, 32.4 µM; with NCI-H23 lung it was 37.1 µM; in the experiment on RPMI-8226 leukemia, over 100 µM. The TGI in the experiment with SNB-19 CNS is 81.2 µM; in the experiment on HCT-15 colon, over 100 µM; in the experiment on NCI-H522 lung, over 100 µM; with MDA-MB-435 it was over 100 µM.

Consider `CCOc1ccc(-c2nc3ccc(-c4nc5ccc(N6CCN(C)CC6)cc5[nH]4)cc3[nH]2)cc1`, for which the GI50 with A549 NSCLC was 1.24 µM and 1.04 µM; in the experiment with A498 renal, 0.223 µM; in the experiment with MALME-3M melanoma, 0.0329 µM; in the experiment on TK-10 renal it was 1.05 µM; with NCI-H23 lung it was 0.288 µM; in the experiment on RPMI-8226 leukemia, 0.0484 µM. Also, the GI50 is 0.448 µM in the experiment on SNB-19 CNS, 1.48 µM in the experiment with HCT-15 colon, 0.09 µM in the experiment on NCI-H522 lung and 0.69 µM in the experiment with MDA-MB-435. Also, the TGI in the experiment on A549 NSCLC was 3.13 µM and 3.35 µM; in the experiment on A498 renal it was 1.05 µM; in the experiment on MALME-3M melanoma, 0.551 µM; in the experiment with TK-10 renal it was 2.24 µM; in the experiment with NCI-H23 lung it was 1.44 µM; with RPMI-8226 leukemia it was 0.71 µM. The TGI is 1.73 µM in the experiment on SNB-19 CNS, 7.61 µM with HCT-15 colon, 0.442 µM in the experiment on NCI-H522 lung and 2.8 µM with MDA-MB-435.

Regarding `CCOC(=O)Cc1csc(NC(=O)C(OC(=O)c2ccc(Cl)cc2)c2ccccc2)n1` (stereo not given), the GI50 with A549 NSCLC is 47.1 µM; in the experiment with A498 renal, over 100 µM; in the experiment with MALME-3M melanoma it was 47.9 µM; in the experiment on TK-10 renal, over 100 µM; with RPMI-8226 leukemia it was 17.1 µM; with SNB-19 CNS, 50.5 µM. For the same compound, the GI50 is 51.6 µM with HCT-15 colon, 46 µM in the experiment on NCI-H522 lung and 28.1 µM with MDA-MB-435. Moreover, the TGI with A549 NSCLC is over 100 µM; with A498 renal, over 100 µM; with MALME-3M melanoma, over 100 µM; in the experiment on TK-10 renal, over 100 µM; in the experiment with RPMI-8226 leukemia, 46.6 µM; in the experiment on SNB-19 CNS, over 100 µM. In addition, the TGI with HCT-15 colon is over 100 µM; with NCI-H522 lung, over 100 µM; in the experiment on MDA-MB-435, 75.6 µM.

In the case of `COC(=O)CCc1n(Cc2ccc3ccccc3c2)c2ccccc2[n+]1Cc1ccc2ccccc2c1`, the GI50 was 2.92 µM with A549 NSCLC; 1.53 µM with A498 renal; 1.05 µM with MALME-3M melanoma; 1.49 µM in the experiment with TK-10 renal; 0.583 µM in the experiment with NCI-H23 lung; 0.582 µM in the experiment on SNB-19 CNS. The GI50 is 2.71 µM in the experiment with HCT-15 colon, 0.44 µM in the experiment with NCI-H522 lung and 0.462 µM in the experiment with MDA-MB-435. The TGI in the experiment with A549 NSCLC came out at 11.9 µM; in the experiment with A498 renal, 3.45 µM; with MALME-3M melanoma it was 2.63 µM; with TK-10 renal, 2.96 µM; with NCI-H23 lung, 2.56 µM; in the experiment with SNB-19 CNS, 1.98 µM. The results for the TGI in the experiment with HCT-15 colon, in the experiment on NCI-H522 lung and in the experiment with MDA-MB-435 were 8.08 µM, 1.77 µM and 1.8 µM, respectively.

For the compound `CCCCCCOC(=O)CC1=C(C)/C(=C/c2[nH]c(-c3ccc[nH]3)cc2OC)N=C1C`, the GI50 was 0.361 µM in the experiment on A549 NSCLC; 0.321 µM in the experiment on A498 renal; 0.345 µM in the experiment with MALME-3M melanoma; 0.108 µM in the experiment with TK-10 renal; 0.101 µM in the experiment on NCI-H23 lung; 0.271 µM in the experiment on SNB-19 CNS. Besides, the GI50 in the experiment on HCT-15 colon was 0.0315 µM; in the experiment on NCI-H522 lung it was 0.0506 µM; in the experiment with MDA-MB-435, 0.0463 µM. Moreover, the TGI in the experiment on A549 NSCLC worked out at 1.26 µM; in the experiment with A498 renal, 1.33 µM; in the experiment on MALME-3M melanoma it was 1.44 µM; with TK-10 renal, 1.38 µM; in the experiment on NCI-H23 lung, 1.75 µM; with SNB-19 CNS it was 2.76 µM. The results for the TGI in the experiment on HCT-15 colon, in the experiment with NCI-H522 lung and with MDA-MB-435 were 1.14 µM, 1.12 µM and 1.12 µM, respectively.

Take `O=C(Nc1ccc(Cl)c(C(F)(F)F)c1)Nc1ccc(-c2cccnc2)cc1N1CCC(CO)CC1`: the GI50 in the experiment on A549 NSCLC was 3.45 µM; with A498 renal, 1.26 µM; in the experiment with MALME-3M melanoma, 2.27 µM; in the experiment on TK-10 renal, 1.85 µM; in the experiment with NCI-H23 lung, 2.78 µM; with SNB-19 CNS, 3.89 µM. For the same compound, the figures for the GI50 in the experiment on HCT-15 colon, in the experiment on NCI-H522 lung and in the experiment on MDA-MB-435 were 2.32 µM, 1.73 µM and 1.91 µM, respectively. In addition, the TGI in the experiment with A549 NSCLC was 23.8 µM; with A498 renal, 4.42 µM; with MALME-3M melanoma it was 7.36 µM; with TK-10 renal it was 4.76 µM; in the experiment on NCI-H23 lung, 9.55 µM; in the experiment with SNB-19 CNS it was over 100 µM. The TGI is 8.01 µM in the experiment with HCT-15 colon, 3.43 µM in the experiment on NCI-H522 lung and 4.53 µM in the experiment on MDA-MB-435.
